Here are results for two sequences from publication PMC5056396, “Hexokinase I N-terminal based peptide prevents the VDAC1-SOD1 G93A interaction and re-establishes ALS cell viability” (Scientific Reports, 2016).

The subject of one experiment is NSC34-SOD1G93A cells. Kind of experiment: Cell viability assay (MTT). It counts as cell-based, mouse. The conditions noted are these: expression from transfected plasmid. From the text:
(§1) In order to analyze the effect of NHK1 peptide in our ALS-like in cellulo system, the subcellular distribution of NHK1 peptide was investigated. NSC34 cells were transiently transfected with a plasmid encoding for a HA-tagged NHK1 peptide and for a mitochondrial-targeted Red Fluorescent Protein (mtDsRED)[18]. […] Then, the NHK1 peptide, as well as the whole HK1 as control, was expressed in NSC34-SOD1G93A or SOD1WT to evaluate its ability to counteract the toxicity mediated by mutSOD1. Literature reports indicate that SOD1 mutants expression in NSC34 cell promote a significative loss of cell viability, accordingly with the specific mutation. […] Therefore, supplementation of NHK1 peptide (or HK1) to NSC34-SOD1G93A cells promotes a recovery of the cell viability.
24 h-induced NSC34-SOD1WT and NSC34-SOD1G93A cells seeded on 24-well plates were transfected using 0,25 μg of pEGFP-N1-HK1 or empty pEGFP-N1 or 0,5 μg of pMCS-mtDsRED-NHK1 or scramble or empty pCMS-mtDsRED. Cell viability was analyzed using 3-(4,5-dimethylthiazol-2-yl)-2,5-diphenyltetrazolium bromide (MTT)[47] (Sigma). A colorimetric assay was performed using the microplate reader Varioskan (Thermo Scientific). Reported data are representative for three sets of independent experiments, each performed in triplicate. Data were statistically analyzed using one-way ANOVA followed by Bonferroni post hoc test. […]

Experiment [1] relates to SOD1 G93A binding to intact mitochondria purified from NSC34 cells. Kind of experiment: Mitochondrial binding assay of SOD1 G93A after pre-incubation with peptide. Also on record: species or system mouse. The note with it: scramble control. The procedure: The ability of NHK1 to inhibit SOD1 G93A from binding the mitochondrial surface was investigated using intact mitochondria purified from NSC34 cells. Mitochondria were incubated with SOD1 G93A, in the presence or absence of 60 μM NHK1 peptide. […] Following incubation with NHK1, a dramatic decrease of 85% SOD1 G93A bound to mitochondria was seen (Fig. 5D). Again, no effect was found by incubating mitochondria with the ScNHK1 peptide.
Intact mitochondria were purified from NSC34 cells by Mitochondrial isolation kit (Miltenyi Biotech), according with manufacturer’s instructions. Isolated, intact mitochondria, in the storage buffer provided, were quantified by Lowry method. Mitochondria were incubated with 2 μg of purified SOD1 WT or G93A for 1 h at RT, under constant shaking in storage buffer. Alternatively, a pre-incubation with 60 μM NHK1 peptide for 1 h, in the same condition, was performed. Mitochondrial pellet was collected by centrifugation for 2 min at 13000×g. Supernatants were collected, and mitochondrial pellets were lysed using 3% Triton X-100. Proteins in mitochondrial or supernatant fraction were detected by western blot and quantified as explained in Supplementary Information. At least, three independent experiments were performed.

A further experiment deals with NSC34 cells. Description: Subcellular distribution by indirect immunofluorescence. It counts as cell-based, mouse. The note with it: HA-tagged NHK1 expressed from plasmid with mtDsRED, transient transfection.
Excerpt: as §1
Plasmids and cell transfection […]
NSC34 cells not transfected or transfected with 0,5 µg of pCMS-mtDsRED-NHK1-HA were fixed in 3.7% formaldehyde and permeabilized using 0.3% Triton X-100. […] Endogenous HK1 was detected in not transfected cells by incubating over-night cells with rabbit anti-HK1 antibody (1:100) (Abcam). NHK1-HA was detected in transfected cells by incubating over-night cells with rabbit anti-HA antibody (1:100) (Santa Cruz Biotechnology, Inc.). […]
examined by fluorescence microscopy. […]

For the sequence “FAQLTIALAYY [ScNHK1, scramble peptide (…) synthetized and used as control, reference compound]”, the “effect on cell viability of NSC34-SOD1G93A” value in the experiment with NSC34-SOD1G93A cells is given as “does not change the cell viability”. The “effect on SOD1 G93A bound to mitochondria” value in experiment [1] is “no effect”. With “IAAQLLAYYFT [NHK1, peptide corresponding to residues 2–12 (N-terminal region) of human HK1 protein (…)]”, the “subcellular localization” value in the experiment with NSC34 cells is on record as “mainly co-localized with mtDsRED signal”.
